Where two headings read alike, the source gives them in different places. Bounds are passed on as bounds.

One data set deals with AML patient blasts. Nature of the data set: Cell death of patient-derived AML blasts, Annexin V/propidium iodide flow cytometry, 24 h. The following applies: compared with Cpd 3, 6, 9. The class given is cell-based, human. The source says:
Blasts from 61 non-selected patients were used in this study. Supplementary Table 1 presents the patient information, classification, and genetic aberration of the blasts. Peripheral blood mononuclear cells (PBMC) from healthy volunteers were obtained from freshly drawn peripheral blood from the Department of Immunology and Transfusion Medicine, Haukeland University Hospital, Bergen, Norway. AML blasts and PBMCs were isolated by density gradient separation of peripheral blood. The patient samples contained at least 95 % leukemic blasts after isolation. Bone marrow (BM) aspirate from a healthy donor was kindly provided by Professor BT Gjertsen, Dept. Clinical Science, University of Bergen (REK Vest 2012/2247). The patient blasts were cultured in StemSpan medium supplemented with SCF, Flt-3 ligand, and G-CSF, each at a final concentration of 20 ng/mL [22, 23], treated with phenazine 5,10-dioxides or daunorubicin (DNR) for 24 h before cell death was assessed by flow-cytometric analyses as described previously. Viable cells were defined as Annexin V/propidium iodide double negative cells.

The subject of data set [1] is MOLM-13. Details: method as in PMID 34124675. The note with it: ref [6]; cited from earlier work.
The test system of data set [2] is zebrafish larvae. The data set is described as follows: Toxicity in zebrafish larvae (viability, MTD, morphology). The following applies: for Melanocyte abnormalities: wild-type AB-strain zebrafish larvae. It is filed as in vivo. As for the experimental part:
Phenazine 5,10-dioxides were dissolved in DMSO to give final concentrations between 5 and 20 mM and administered to the zebrafish larvae by diluting the stock solutions in the embryo medium. All compounds were tested up to a maximal concentration of 100 µM. […]
(§1) Zebrafish larvae heart rate was analysed as described by Førde et al.. To examine zebrafish larvae for morphological abnormalities, they were imaged using a Nikon Diaphot 300 inverted microscope fitted with a Nikon DS-Fi3 microscope camera and DS-L4 camera control unit.

Data set [3] deals with MOLM-13. The data set is described as follows: WST-1 metabolic activity and Bliss synergy with VTX, MOLM-13. The class given is cell-based, human. The note with it: for Mean Bliss interaction index (synergy score): Cpd 1 + VTX, all tested combinations. On the procedure: (§2) To study the combination effect of phenazine 5,10-dioxides and VTX in AML cell lines, the cells were seeded in 96-well plates at 35,000 cells per well for 24-hour experiments or 20,000 cells per well for 48-hour experiments. Phenazine 5,10-dioxides and VTX, alone or in combination, were added in desired concentrations and cell plates incubated for 24 and 48 h. Thereafter, WST-1 was added to each well according to the manufacturer’s instructions and incubated for two hours. Absorbance was measured at 450 nm with 620 nm reference wavelength in a Wallac EnVision® 2130 multilabel plate reader, and this value was used to calculate relative metabolic activity compared to untreated cells. The cells were next fixed in 2 % formaldehyde with 0.01 mg/ml Hoechst 33,342 dye dissolved in PBS. Nuclear morphology was studied using a Nikon Diaphot 300 microscope to confirm that metabolic activity correlated with the presence of apoptotic nuclei (Supplementary Figure 1).
(§3) To calculate drug interaction, cell metabolic activity results were plotted into the interaction calculation software SynergyFinder+ [31], and Bliss independence score was used to calculate synergy.

The next data set relates to AML cell lines. Nature of the data set: Preliminary combination of Cpd 1 with AML drugs. The class given is cell-based, human. The note with it: in combination with DNR, cytarabine and etoposide, data not shown.
The test system of data set [4] is MOLM-13. The data set is described as follows: Cytotoxicity towards MOLM-13 cells (EC50). The class given is cell-based, human. The following applies: no reference mark in Table 3. On the procedure: Table 3 Toxicity of phenazine 5,10-dioxides in zebrafish larvae. Maximum tolerated doses and observed morphological alterations in zebrafish larvae caused by phenazine 5,10-dioxides dissolved in embryo medium for 48 h. Cpd: compound. MTD: maximum tolerated dose. a: EC50 values from, –: not observed. | column: MOLM-13 EC50 (µM)

Details of data set [5]: method as in PMID 38778732. The note with it: patients receiving 400 mg VTX as a single dosage; ref [43]; cited from earlier work.
For a further data set, the system named is OCI-AML3. The data set is described as follows: WST-1 metabolic activity and Bliss synergy with VTX, OCI-AML3. It is filed as cell-based, human. The note with it: VTX alone; 24 h. On the procedure: as §2, §3
For data set [6], the system named is xenograft MOLM-13 cells in zebrafish larvae. Nature of the data set: Tumour burden of xenograft MOLM-13 cells in zebrafish larvae. It is filed as in vivo. The following applies: VTX 4 nL 50 µM intravenous injection; 24 h; p < 0.001. As for the experimental part:
Prior to transplantation into zebrafish larvae, MOLM-13 cells were stained with the fluorescent marker CellTracker™ Deep Red. The cell suspension was centrifuged at 300 relative centrifugal force (RCF) for 5 min, and the medium removed. Thereafter, the cells were resuspended in serum-free RPMI-1640 medium containing 1.5 µM CellTracker™ Deep Red and incubated for 30 min at 37 °C. Excess dye was removed by centrifugation for five minutes at 300 RCF, removal of the medium and the cells were resuspended in fresh RPMI-medium to a final concentration of 10 million cells/mL. Intravenous injection of MOLM-13 cells into zebrafish larvae was performed as described in Førde et al.. The zebrafish larvae xenografts were incubated at 31.5 °C.
For quantification of tumour burden in zebrafish larvae a Nikon Ti-E inverted microscope fitted with an Andor Dragonfly 505 spinning disk confocal unit and iXon 888 Life EMCCD camera setup was used. […] The zebrafish larvae were scored based on the number of cells successfully injected and divided into treatment or control groups. […]
The Fiji macro described in [30] was used to determine MOLM-13 cancer cell burden in zebrafish larvae. […] After defining the boundary of the larva and segmentation from the background, the cells are segmented so that individual cells can be quantified (both size and number). […]

For data set [7] the following is noted: ref [29]; cited from earlier work.
Data set [8] relates to zebrafish larvae. Nature of the data set: Zebrafish larvae heart rate. The class given is in vivo. The following applies: intravenously injected, 4 nL injection, 100 µM; 24 and 48 h. As for the experimental part: as §1
In another data set the test system is AML patients. Further details: method as in PMID 32786187. The note with it: ref [14]; cited from earlier work.
Setting [9] is: dissolved in embryo medium for 48 h.
Where [10] appears, read: dissolved in embryo medium for 48 h, concentration from which observed.

In the case of `[O-][n+]1c2cccc(O)c2[n+]([O-])c2cccc(O)c21` [Cpd 1, 1,6-dihydroxyphenazine 5,10-dioxide], the “Potency towards the patient blasts” value in the data set with AML patient blasts was “lowest potency”. For the same molecule, in the data set with MOLM-13 [1], the EC50 was 2000 ± 100 nM. Besides, the “Lethality to zebrafish larvae” value in the data set with zebrafish larvae [2] (100 µM (highest concentration tested), 48 h) is “not lethal”. Moreover, the “Viability of zebrafish larvae (Fig. 2A annotation)” value with zebrafish larvae [2] (48 h of exposure, up to 100 µM) is given as “Non-toxic”. The “MTD (maximum tolerated dose)” value in the data set with zebrafish larvae [2] (setting [9]) is on record as more than 100 µM. Further, in the data set on zebrafish larvae [2], the Melanocyte abnormalities entry is listed as “not observed”. Besides, the “Mean Bliss interaction index (synergy score)” value with MOLM-13 [3] (24 h) is reported as 15.56; in the data set with MOLM-13 [3] (48 h) it was 10.90. In addition, the Drug interaction entry in the data set on AML cell lines is “additive effects”.
With `COc1cccc2c1[n+]([O-])c1cccc(O)c1[n+]2[O-]` [Cpd 2, Myxin], the EC50 in the data set on MOLM-13 [1] is 1400 ± 300 nM. Also, in the data set with zebrafish larvae [2] (48 h exposure), the “Only concentration that did not cause lethality” value was determined as 5 µM. The “MTD (maximum tolerated dose)” value in the data set on zebrafish larvae [2] (setting [9]) came out at 5 µM. The Pigmentation alterations result in the data set on zebrafish larvae [2] (setting [10]) is reported as “From 10 µM”. The “Concentration killing zebrafish larvae after six hours” value with zebrafish larvae [2] (in embryo medium, data not shown) is 30000 nM. Further, in the data set on zebrafish larvae [2], the Melanocyte abnormalities result was “caused melanocyte abnormalities”.
As for `COc1cccc2c1[n+]([O-])c1ccccc1[n+]2[O-]` [Cpd 10], in the data set with MOLM-13 [4], the EC50 was 1400 ± 100 nM. Also, the “MTD (maximum tolerated dose)” value in the data set on zebrafish larvae [2] (setting [9]) is recorded as less than 10 µM. Moreover, in the data set on zebrafish larvae [2] (setting [10]), the Muscle fibre alterations result is recorded as “From 10 µM” and the Pigmentation alterations entry is “From 10 µM”. Besides, in the data set on zebrafish larvae [2], the Melanocyte abnormalities entry is reported as “caused melanocyte abnormalities”.
Regarding `CC1(C)CCC(CN2CCN(c3ccc(C(=O)NS(=O)(=O)c4ccc(NCC5CCOCC5)c([N+](=O)[O-])c4)c(Oc4cnc5[nH]ccc5c4)c3)CC2)=C(c2ccc(Cl)cc2)C1` [VTX, venetoclax], the Cmax in data set [5] is approximately 2500 nM. Also, in the data set on OCI-AML3, the “Concentration until which no reduction in metabolic activity” value is reported as 6 µM and the “Sensitivity of OCI-AML3 cells” value is “high resistance”. Also, in the data set on MOLM-13 [3] (6 nM VTX alone, 48 h), the Relative metabolic activity is given as 59%. In addition, the “Cancer cell burden relative to control” value in data set [6] is recorded as “reduced cancer cell burden”. In addition, the Permeability result in [7] is “low permeability”. Further, the “Heartrate of zebrafish larvae relative to control” value in the data set on zebrafish larvae [8] is “No significant differences”.
As to `Nc1ncn([C@@H]2O[C@H](CO)[C@@H](O)[C@H]2O)c(=O)n1` [azacitidine], the Median overall survival in the data set on AML patients is given as 9.6 months.

Source of the values: PMC12741294, “Phenazine 5,10-dioxide analogues as potential therapeutics in AML: Efficacy on patient-derived blasts, in zebrafish larvae xenografts and synergy with venetoclax” (Translational Oncology, 2025).
